Reference: US11306078B2, “Piperidine CXCR7 receptor modulators” (IDORSIA PHARMACEUTICALS LTD., priority 2016, dated 2022)

Target: human chemokine receptor CXCR7 (Homo sapiens (Human), UniProt P25106)
Experiment: Tango CXCR7-bla U2OS beta-arrestin recruitment assay (beta-lactamase reporter, FRET), antagonism of CXCL12/SDF1-α;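 also: compounds preincubated 15 min before CXCL12 addition, then 22 h at 37 °C, FRET emission ratio read with CCF4-AM substrate after 2 h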
Assay type: cell-based
Conditions: antagonistic effect on CXCR7; Tango CXCR7-bla U2OS cells, CXCL12/SDF1-α at its EC80

human chemokine receptor CXCR7, sequence (P25106 whole entry): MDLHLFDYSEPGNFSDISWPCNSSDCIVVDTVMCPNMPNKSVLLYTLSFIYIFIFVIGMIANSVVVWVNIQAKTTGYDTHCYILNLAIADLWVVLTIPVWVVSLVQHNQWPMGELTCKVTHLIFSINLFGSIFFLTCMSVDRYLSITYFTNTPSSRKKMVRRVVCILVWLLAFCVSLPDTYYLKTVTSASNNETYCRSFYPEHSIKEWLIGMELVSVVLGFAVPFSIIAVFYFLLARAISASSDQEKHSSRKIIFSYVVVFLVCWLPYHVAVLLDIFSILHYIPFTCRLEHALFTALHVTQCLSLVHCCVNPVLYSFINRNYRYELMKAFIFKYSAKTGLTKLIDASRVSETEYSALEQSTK

SMILES | IC50 [nM]
O=C(N[C@@H]1CCN(CC2CC2)C[C@H]1C(=O)N1CCC1)c1cc(-c2c(F)cc(F)cc2F)on1 (racemic) [Example 1.107, rac-5-(2,4,6-Trifluoro-phenyl)-isoxazole-3-carboxylic acid [(3R*,4R*)-3-(azetidine-1-carbonyl)-1-cyclopropylmethyl-piperidin-4-yl]-amide] | 520
O=C(N[C@@H]1CCN(CC2CC2)C[C@H]1C(=O)NC1(c2ccc(F)cn2)CC1)c1cc(-c2ccc(F)cc2F)no1 (racemic) [Example 1.163, rac-(3R*,4R*)-1-Cyclopropylmethyl-4-{[3-(2,4-difluoro-phenyl)-isoxazole-5-carbonyl]-amino}-piperidine-3-carboxylic acid [1-(5-fluoro-pyridin-2-yl)-cyclopropyl]-amide] | 953
CN(C)C(=O)[C@@H]1CN(CC2CC2)CC[C@H]1NC(=O)c1cc(-c2ccc(F)cc2F)on1 [Example 2.045] | 114
CN(C)C(=O)[C@@H]1CN(C2CCCC2)CC[C@H]1NC(=O)c1cn(-c2ccc(F)cc2F)nn1 (racemic) [Example 1.096, rac-(3R*,4R*)-1-Cyclopentyl-4-{[1-(2,4-difluoro-phenyl)-1H-[1,2,3]triazole-4-carbonyl]-amino}-piperidine-3-carboxylic acid dimethylamide] | 667
O=C(N[C@H]1CCN(CC2CC2)C[C@@H]1C(=O)NC1(c2ncccn2)CC1)c1noc(-c2ccc(F)cc2F)n1 [Example 7.008, (3S,4S)-1-Cyclopropylmethyl-4-{[5-(2,4-difluoro-phenyl)-[1,2,4]oxadiazole-3-carbonyl]-amino}-piperidine-3-carboxylic acid (1-pyrimidin-2-yl-cyclopropyl)-amide] | 51
C[C@@H](NC(=O)[C@@H]1CN(C2CCCC2)CC[C@H]1NC(=O)c1cc(-c2c(F)cc(F)cc2F)on1)C1CCC1 (single isomer, unassigned) [Example 1.138b, (3R*,4R*)-1-Cyclopentyl-4-{[5-(2,4,6-trifluoro-phenyl)-isoxazole-3-carbonyl]-amino}-piperidine-3-carboxylic acid ((R)-1-cyclobutyl-ethyl)-amide] | 83
O=C(N[C@@H]1CCN(CC2CC2)C[C@H]1C(=O)NC1(c2ncccn2)CC1)c1cc(-c2ccc(C(F)(F)F)cc2)on1 (single isomer, unassigned) [Example 1.192b, (3R*,4R*)-1-Cyclopropylmethyl-4-{[5-(4-trifluoromethyl-phenyl)-isoxazole-3-carbonyl]-amino}-piperidine-3-carboxylic acid (1-pyrimidin-2-yl-cyclopropyl)-amide] | 122
C[C@@H](NC(=O)[C@@H]1CN(C2CCCCC2)CC[C@H]1NC(=O)c1cc(-c2ccc(F)cc2F)on1)c1ncccc1F (relative stereo) [Example 1.092, (3R*,4R*)-1-Cyclohexyl-4-{[5-(2,4-difluoro-phenyl)-isoxazole-3-carbonyl]-amino}-piperidine-3-carboxylic acid [(R)-1-(3-fluoro-pyridin-2-yl)-ethyl]-amide] | 1
O=C(N[C@H]1CCN(CC2CC2)C[C@@H]1C(=O)NC1(c2ncccn2)CC1)c1cn(-c2c(F)cc(F)cc2F)nn1 [Example 7.012, (3S,4S)-1-Cyclopropylmethyl-4-{[1-(2,4,6-trifluoro-phenyl)-1H-[1,2,3]triazole-4-carbonyl]-amino}-piperidine-3-carboxylic acid (1-pyrimidin-2-yl-cyclopropyl)-amide] | 356
C[C@@H](NC(=O)[C@H]1CN(C2CCCC2)CC[C@@H]1NC(=O)c1cc(-c2ccc(F)cc2F)on1)c1cccnc1 [Example 4.042] | 74
C[C@@H]1CCC[C@H]1N1CC[C@@H](NC(=O)c2cn(-c3ccc(F)cc3F)nn2)[C@H](C(=O)N[C@H](C)C2CCC2)C1 (relative stereo) [Example 1.137, (3R*,4R*)-4-{[1-(2,4-Difluoro-phenyl)-1H-[1,2,3]triazole-4-carbonyl]-amino}-1-((1RS,2RS)-2-Methyl-cyclopentyl)-piperidine-3-carboxylic acid ((R)-1-cyclobutyl-ethyl)-amide] | 919
C[C@@H](NC(=O)[C@@H]1CN(C2CCCC2)CC[C@H]1NC(=O)c1cc(-c2ccc(F)cc2F)no1)c1ccccn1 (relative stereo) [Example 1.126, (3R*,4R*)-1-Cyclopentyl-4-{[3-(2,4-difluoro-phenyl)-isoxazole-5-carbonyl]-amino}-piperidine-3-carboxylic acid ((R)-1-pyridin-2-yl-ethyl)-amide] | 49
Cc1cccc([C@@H](C)NC(=O)[C@@H]2CN(C3CCCCC3)CC[C@H]2NC(=O)c2cc(-c3ccc(F)cc3F)on2)n1 (single isomer, unassigned) [Example 1.188a, (3R*,4R*)-1-Cyclohexyl-4-{[5-(2,4-difluoro-phenyl)-isoxazole-3-carbonyl]-amino}-piperidine-3-carboxylic acid [(R)-1-(6-methyl-pyridin-2-yl)-ethyl]-amide] | 3
CN(CCc1ccccc1)C(=O)[C@@H]1CN(CCO)CC[C@H]1NC(=O)c1cc(-c2ccc(F)cc2F)on1 [Example 2.052] | 267
O=C(N[C@H]1CCN(CC2CC2)C[C@@H]1C(=O)N1CCCC1c1ncccn1)c1cc(-c2ccc(F)cc2F)on1 (stereo partly drawn) [Example 4.078b] | 15
O=C(N[C@@H]1CCN(C2CCCC2)C[C@H]1C(=O)NC1(c2ccccn2)CC1)c1cc(-c2ccc(F)cc2F)no1 (racemic) [Example 1.173, rac-(3R*,4R*)-1-Cyclopentyl-4-{[3-(2,4-difluoro-phenyl)-isoxazole-5-carbonyl]-amino}-piperidine-3-carboxylic acid (1-pyridin-2-yl-cyclopropyl)-amide] | 110
Cc1cc(CNC(=O)[C@@H]2CN(C3CCCCC3)CC[C@H]2NC(=O)c2cc(-c3ccc(F)cc3F)on2)on1 (racemic) [Example 1.029, rac-(3R*,4R*)-1-Cyclohexyl-4-{[5-(2,4-difluoro-phenyl)-isoxazole-3-carbonyl]-amino}-piperidine-3-carboxylic acid (3-methyl-isoxazol-5-ylmethyl)-amide] | 315
Cc1ccc(-c2cc(C(=O)N[C@H]3CCN(CC4CC4)C[C@@H]3C(=O)NC3(c4ncccn4)CC3)no2)cc1C [Example 7.003, (3S,4S)-1-Cyclopropylmethyl-4-{[5-(3,4-dimethyl-phenyl)-isoxazole-3-carbonyl]-amino}-piperidine-3-carboxylic acid (1-pyrimidin-2-yl-cyclopropyl)-amide] | 210
O=C(N[C@@H]1CCN(CC2CC2)C[C@H]1C(=O)NC1(c2ccccn2)CC1)c1cc(-c2c(F)cc(F)cc2F)on1 (racemic) [Example 1.171, rac-(3R*,4R*)-1-Cyclopropylmethyl-4-{[5-(2,4,6-trifluoro-phenyl)-isoxazole-3-carbonyl]-amino}-piperidine-3-carboxylic acid (1-pyridin-2-yl-cyclopropyl)-amide] | 16
O=C(N[C@@H]1CCN(CC2CC2)C[C@H]1C(=O)NCc1ncccn1)c1cc(-c2ccc(F)cc2F)on1 [Example 4.099] | 852
CC(C)(C)N1CC[C@@H](NC(=O)c2cc(-c3ccc(F)cc3F)on2)[C@H](C(=O)NC2(c3ncccn3)CC2)C1 [Example 4.101a] | 18
C#CC(C)NC(=O)[C@H]1CN(C2CCCC2)CC[C@@H]1NC(=O)c1cc(-c2ccc(F)cc2F)on1 (stereo partly drawn) [Example 4.039] | 393
C[C@@H](NC(=O)[C@@H]1CN(CC2CC2)CC[C@H]1NC(=O)c1cc(-c2ccc(F)cc2F)no1)C1CCC1 (relative stereo) [Example 1.161, (3R*,4R*)-1-Cyclopropylmethyl-4-{[3-(2,4-difluoro-phenyl)-isoxazole-5-carbonyl]-amino}-piperidine-3-carboxylic acid ((R)-1-cyclobutyl-ethyl)-amide] | 105
COCCCN(C)C(=O)[C@@H]1CN(C2CCCCC2)CC[C@H]1NC(=O)c1cc(-c2ccc(F)cc2F)on1 (racemic) [Example 1.027, rac-(3R*,4R*)-1-Cyclohexyl-4-{[5-(2,4-difluoro-phenyl)-isoxazole-3-carbonyl]-amino}-piperidine-3-carboxylic acid (3-methoxy-propyl)-methyl-amide] | 117
C[C@@H]1CC[C@H]1N1CC[C@@H](NC(=O)c2cc(-c3ccc(F)cc3F)on2)[C@H](C(=O)N(C)C)C1 [Example 2.016b] | 63
O=C(N[C@@H]1CCN(CC2CC2)C[C@H]1C(=O)NC1(c2ccccn2)CC1)c1cc(-c2ccc(F)cc2)on1 (racemic) [Example 3.014, rac-(3R*,4R*)-1-Cyclopropylmethyl-4-{[5-(4-fluoro-phenyl)-isoxazole-3-carbonyl]-amino}-piperidine-3-carboxylic acid (1-pyridin-2-yl-cyclopropyl)-amide] | 158
CN(C)C(=O)[C@]1(C)CN(C2CCCCC2)CC[C@H]1NC(=O)c1cc(-c2ccc(F)cc2F)on1 (racemic) [Example 5.002, rac-(3R*,4R*)-1-Cyclohexyl-4-{[5-(2,4-difluoro-phenyl)-isoxazole-3-carbonyl]-amino}-3-methyl-piperidine-3-carboxylic Acid Dimethylamide] | 857
CCOCC(C)NC(=O)[C@@H]1CN(C2CCCCC2)CC[C@H]1NC(=O)c1cc(-c2ccc(F)cc2F)on1 (relative stereo) [Example 1.083, (3R*,4R*)-1-Cyclohexyl-4-{[5-(2,4-difluoro-phenyl)-isoxazole-3-carbonyl]-amino}-piperidine-3-carboxylic acid ((1RS)-2-ethoxy-1-methyl-ethyl)-amide] | 76
C[C@@H](NC(=O)[C@@H]1CN(C2CCCC2)CC[C@H]1NC(=O)c1cc(-c2c(F)cc(F)cc2F)on1)c1ccccn1 (single isomer, unassigned) [Example 1.122b, (3R*,4R*)-1-Cyclopentyl-4-{[5-(2,4,6-trifluoro-phenyl)-isoxazole-3-carbonyl]-amino}-piperidine-3-carboxylic acid ((R)-1-pyridin-2-yl-ethyl)-amide] | 17
O=C(N[C@H]1CCN(CC2CC2)C[C@@H]1C(=O)N1CC[C@@H]1c1ccccc1)c1cc(-c2ccc(F)cc2F)on1 [Example 4.067a] | 20
